Assay results reported in patent US11572341B2, “Biguanide compound and use thereof” (ImmunoMet Therapeutics Inc., priority 2014, dated 2023).

Test system: AMPKa [pT172]
Test: AMPKa activation [pT172] in MCF7 cell
Assay type: cell-based

In the case of `CC1CC(=O)N=C(NC(=N)N)N1.Cl` (centres unmarked) [Example 164], the “AMPKa activation [pT172] (Unit/ml) @ MCF7 cell” value (shortened to “AMPKa activation [pT172]”) (5 uM) is reported as 2.89 Unit/ml, the “AMPKa activation [pT172]” value (10 uM) is reported as 3.43 Unit/ml and the “AMPKa activation [pT172]” value (50 uM) is reported as 2.77 Unit/ml.
With `Cl.N=C(NCCc1ccccc1Cl)NC(=N)N1CCCCC1` [Example 14] the “AMPKa activation [pT172]” value (50 uM) was 11.0 Unit/ml.
With `CC1CNC(NC(=N)N)=NC1=O.Cl` (centres unmarked) [Example 160, 1-(5-methyl-4-oxo-1,4,6-tetrahydropyrimidin-3-yl)guanidine Hydrochloride] the “AMPKa activation [pT172]” value (5 uM) was 2.51 Unit/ml, the “AMPKa activation [pT172]” value (10 uM) was 2.65 Unit/ml and the “AMPKa activation [pT172]” value (50 uM) was 2.84 Unit/ml.
For `Cl.N=C(NC1=NC(=O)CC(C2CC2)N1)N1CCCCC1` (centres unmarked) [Example 157, N-(6-cyclopropyl-4-oxo-1,4,5,6-tetrahydropyrimidin-2-yl)piperidin-1-carboximidamide Hydrochloride], the “AMPKa activation [pT172]” value (5 uM) was 4.17 Unit/ml, the “AMPKa activation [pT172]” value (10 uM) was 2.68 Unit/ml and the “AMPKa activation [pT172]” value (50 uM) was 2.00 Unit/ml.
For `CC1CCNC(NC(=N)N2CCCCC2)=N1.Cl` (centres unmarked) [Example 162, N-(4-methyl-1,4,5,6-tetrahydropyrimidin-2-yl)piperidin-1-carboximidamide Hydrochloride], the “AMPKa activation [pT172]” value (5 uM) was 4.41 Unit/ml, the “AMPKa activation [pT172]” value (10 uM) was 4.04 Unit/ml and the “AMPKa activation [pT172]” value (50 uM) was 7.34 Unit/ml.
For `Cl.N=C(NC(=N)N1CCCCC1)N1CCCCC1` [Example 2, N1-piperidin-N5-piperidine Biguanide Hydrochloride], the “AMPKa activation [pT172]” value (50 uM) was 4.9 Unit/ml.
With `CNC(=N)NC(=N)N.Cl` [Example 108, N1-methyl Biguanide Hydrochloride] the “AMPKa activation [pT172]” value (50 uM) was 3.9 Unit/ml.
In the case of `Cl.N=C(NC(=N)N1CCCC1)Nc1ccc(Br)cc1` [Example 72], the “AMPKa activation [pT172]” value (5 uM) is reported as 5.4 Unit/ml, the “AMPKa activation [pT172]” value (10 uM) is reported as 6.6 Unit/ml and the “AMPKa activation [pT172]” value (50 uM) is reported as 19.1 Unit/ml.
With `Cl.N=C(N)NC(=N)Nc1ccc(OC(F)(F)F)cc1` [Example 140] the “AMPKa activation [pT172]” value (5 uM) was 6.2 Unit/ml, the “AMPKa activation [pT172]” value (10 uM) was 6.6 Unit/ml and the “AMPKa activation [pT172]” value (50 uM) was 8.7 Unit/ml.
In the case of `CC(C)C1CC(=O)N=C(NC(=N)N2CCCCC2)N1.Cl` (centres unmarked) [Example 159, N-(6-isopropyl-4-oxo-1,4,5,6-tetrahydropyrimidin-2-yl)piperidin-1-carboximidamide Hydrochloride], the “AMPKa activation [pT172]” value (5 uM) is reported as 2.17 Unit/ml, the “AMPKa activation [pT172]” value (10 uM) is reported as 2.35 Unit/ml and the “AMPKa activation [pT172]” value (50 uM) is reported as 3.02 Unit/ml.
With `CN1CCN(C(=N)NC(=N)NCc2cccc(Cl)c2)CC1.Cl` [Example 35] the “AMPKa activation [pT172]” value (5 uM) was 5.0 Unit/ml, the “AMPKa activation [pT172]” value (10 uM) was 4.2 Unit/ml and the “AMPKa activation [pT172]” value (50 uM) was 3.4 Unit/ml.
In the case of `Cl.N=C(NCc1ccc2c(c1)OCO2)NC(=N)N1CCCCC1` [Example 9, N1-piperidin-N5-(benzo[d][1,3]dioxol-5-yl)methyl Biguanide Hydrochloride], the “AMPKa activation [pT172]” value (50 uM) is reported as 16.3 Unit/ml.
`CC1(C)CC(=O)N=C(NC(=N)N)N1.Cl` [Example 152] was tested, and the “AMPKa activation [pT172]” value (5 uM) was 7.9 Unit/ml, the “AMPKa activation [pT172]” value (10 uM) was 8.1 Unit/ml and the “AMPKa activation [pT172]” value (50 uM) was 8.6 Unit/ml.
In the case of `Cl.N=C(NC(=N)N1CCCC1)N1CCCCC1` [Example 5, N1-piperidin-N5-pyrrolidine Biguanide Hydrochloride], the “AMPKa activation [pT172]” value (50 uM) is reported as 5.8 Unit/ml.
In the case of `Cl.N=C(N)NC(=N)N1CCOCC1` [Example 118], the “AMPKa activation [pT172]” value (50 uM) is reported as 6.0 Unit/ml.
In the case of `CN(C)/C(=N\Cc1ccc(F)cc1)NC(=N)N1CCCCC1.Cl` [Example 93, N1,N1-dimethyl-N2-(4-fluoro)benzyl-N5-piperidine Biguanide Hydrochloride], the “AMPKa activation [pT172]” value (50 uM) is reported as 6.6 Unit/ml.
For `CN1CCN(C(=N)NC(=N)Nc2ccc(F)c(F)c2)CC1.Cl` [Example 38], the “AMPKa activation [pT172]” value (5 uM) was 5.9 Unit/ml, the “AMPKa activation [pT172]” value (10 uM) was 5.1 Unit/ml and the “AMPKa activation [pT172]” value (50 uM) was 6.4 Unit/ml.
For `CN(C)C(=N)NC(=N)N(C)Cc1cccc2ccccc12.Cl` [Example 3, N1,N1-dimethyl-N5-methyl-N5-1-(naphthalen-1-yl)methyl Biguanide Hydrochloride], the “AMPKa activation [pT172]” value (50 uM) was 6.2 Unit/ml.
`CCCCN/C(=N\C1CCCCCC1)NC(=N)N.Cl` [Example 92, N1-butyl-N2-cycloheptyl Biguanide Hydrochloride] was tested, and the “AMPKa activation [pT172]” value (50 uM) was 21.1 Unit/ml.
In the case of `CCCC1CC(=O)N=C(NC(=N)N2CCCCC2)N1.Cl` (centres unmarked) [Example 163, N-(6-propyl-4-oxo-1,4,5,6-tetrahydropyrimidin-2-yl)piperidin-1-carboximidamide Hydrochloride], the “AMPKa activation [pT172]” value (5 uM) is reported as 4.07 Unit/ml, the “AMPKa activation [pT172]” value (10 uM) is reported as 3.76 Unit/ml and the “AMPKa activation [pT172]” value (50 uM) is reported as 4.48 Unit/ml.
With `CC1CCN(C(=N)NC(=N)Nc2ccc(Cl)cc2)CC1.Cl` [Example 55] the “AMPKa activation [pT172]” value (5 uM) was 3.5 Unit/ml, the “AMPKa activation [pT172]” value (10 uM) was 5.3 Unit/ml and the “AMPKa activation [pT172]” value (50 uM) was “cell death”.
For `CN(C)C(=N)NC(=N)NCc1ccc2c(c1)OCO2.Cl` [Example 4, N1,N1-dimethyl-N5-(benzo[d][1,3]dioxol-5-yl)methyl Biguanide Hydrochloride], the “AMPKa activation [pT172]” value (50 uM) was 3.8 Unit/ml.
For `CCOC1CCN(C(=N)NC(=N)Nc2cccc(OC(F)(F)F)c2)CC1.Cl` [Example 25], the “AMPKa activation [pT172]” value (5 uM) was 5.8 Unit/ml, the “AMPKa activation [pT172]” value (10 uM) was 7.0 Unit/ml and the “AMPKa activation [pT172]” value (50 uM) was “cell death”.
With `CC1CN=C(NC(=N)N2CCCCC2)NC1.Cl` (centres unmarked) [Example 158, N-(5-methyl-1,4,5,6-tetrahydropyrimidin-2-yl)piperidin-1-carboximidamide Hydrochloride] the “AMPKa activation [pT172]” value (5 uM) was 3.11 Unit/ml, the “AMPKa activation [pT172]” value (10 uM) was 2.49 Unit/ml and the “AMPKa activation [pT172]” value (50 uM) was 3.75 Unit/ml.
For `CC(C)CC1CC(=O)N=C(NC(=N)N2CCCCC2)N1.Cl` (centres unmarked) [Example 161, N-(6-isobutyl-4-oxo-1,4,5,6-tetrahydropyrimidin-2-yl)piperidin-1-carboximidamide Hydrochloride], the “AMPKa activation [pT172]” value (5 uM) was 3.03 Unit/ml, the “AMPKa activation [pT172]” value (10 uM) was 2.73 Unit/ml and the “AMPKa activation [pT172]” value (50 uM) was 4.06 Unit/ml.
In the case of `Cl.N=C(NC1=NCCCN1)N1CCCCC1` [Example 153, N-(1,4,5,6-tetrahydropyrimidin-2-yl)piperidin 1-carboximidamide Hydrochloride], the “AMPKa activation [pT172]” value (5 uM) is reported as 8.0 Unit/ml, the “AMPKa activation [pT172]” value (10 uM) is reported as 6.8 Unit/ml and the “AMPKa activation [pT172]” value (50 uM) is reported as 6.3 Unit/ml.
In the case of `CN1CCN(C(=N)NC(=N)Nc2ccc(Cl)cc2)CC1.Cl` [Example 27], the “AMPKa activation [pT172]” value (5 uM) is reported as 9.8 Unit/ml, the “AMPKa activation [pT172]” value (10 uM) is reported as 8.7 Unit/ml and the “AMPKa activation [pT172]” value (50 uM) is reported as 14.3 Unit/ml.
For `CN(C)C(=N)NC(=N)N1CCCCC1.Cl` [Example 1, N1,N1-dimethyl-N5-piperidine Biguanide Hydrochloride], the “AMPKa activation [pT172]” value (50 uM) was 4.6 Unit/ml.
With `Cl.N=C(NCc1ccc(OC(F)(F)F)cc1)NC(=N)Nc1cccnc1` [Example 42] the “AMPKa activation [pT172]” value (5 uM) was 4.3 Unit/ml, the “AMPKa activation [pT172]” value (10 uM) was 8.7 Unit/ml and the “AMPKa activation [pT172]” value (50 uM) was 19.1 Unit/ml.
